Measured values taken from US20150148235A1, “HERBICIDE-RESISTANT SUNFLOWER PLANTS WITH MULTIPLE HERBICIDE RESISTANT ALLELES OF AHASL1 AND METHODS OF USE” (NIDERA S.A., priority 2013, published 2015).

Key:
[1] = tested on: AHAS enzyme, A122T/A205V Heterozygous sunflower; test: AHAS enzyme activity assay, leaf extract; format: biochemical, Helianthus annuus; conditions: A122T/A205V heterozygous hybrid (Set 1); 100 μM
Protocol: (§1) Twelve greenhouse grown sunflower plants from each of the lines depicted in Table 21 were bulked and subjected to an AHAS enzyme activity assay via the method of Singh et al. (1988) Anal. Biochem. 171:173-179. Each activity assay was repeated twice. Due to the large number of samples, the experiment was split into two sets (Table 21).
(§2) Young, actively growing leaves, from four week old plantlets, were ground in a mortar and pestle with liquid N2 and extracted with a buffer composed of 100 mM Pyruvate, 200 mM KH2PO4, 20 mM MgCl2, 2 mM thiamine pyrophosphate and […]. Plant extracts were then spun through a 10 mL Zeba TM desalt spin column (Pierce #89893) as per the manufacturer's recommendation. The inhibition assay was performed as described by Singh et al. (1988) Anal. Biochem. 171:173-179. Assays were conducted in a 96-well format. Fifty μl of inhibitor was added to each well containing 50 μl of soluble protein extract to give final concentrations of 0.78, 1.56, 3.125, 6.25, 12.5, 25, 50 and 100 μM imazamox or 0.78, 1.56, 3.125, 6.25, 12.5, 25, 50 and 100 μM imazapyr. Zero herbicide controls were also included for each line. Reactions were processed as outlined by Singh et al. (1988) Anal. Biochem. 171:173-179. Absorbance was measured at 530 nm. AHAS activity, expressed as the mean of the absorbance values for each treatment, was presented as a percentage of the mean of the zero-herbicide controls.

[2] = tested on: AHAS enzyme, A205V Homozygous sunflower; test: AHAS enzyme activity assay, leaf extract; format: biochemical, Helianthus annuus
Protocol: as §1, §2

[3] = tested on: AHAS enzyme, A122T Homozygous sunflower; test: AHAS enzyme activity assay, leaf extract; format: biochemical, Helianthus annuus
Protocol: as §1, §2

[4] = tested on: sunflower hybrids and lines (A122T, A205V, A205V/A122T); test: Field trial North Dakota 2006, phytotoxicity ratings after imazamox or imazapyr, Example 3; format: in vivo, Helianthus annuus
Protocol: • Spray volume: 10 gallons per acre (GPA) (or 100 liters/ha) for backpack sprayer or 20 GPA (or 200 liters/ha) for tractor mounted boom • Growth Stage at Herbicide Application: 2-4 leaves
Entry 15 (WT Maintainer line) was left unsprayed in all treatment blocks.
Phytotoxicity ratings were assessed at 7 and 21 days following herbicide application.
The data was subjected to an ANOVA analysis and the means from the 3 repetitions are presented in Table 7 (phytotoxicity at 7 days post-treatment) and Table 8 (phytotoxicity at 21 days post-treatment).

## COCc1cnc(C2=NC(C)(C(C)C)C(=O)N2)c(C(=O)O)c1 (centres unmarked) [imazamox]
[1]
  AHAS activity: 59%
[2]; A205V homozygous (Set 2), 50 μM
  AHAS activity: 30%
[2]; A205V homozygous (Set 2), 100 μM
  AHAS activity: 26%
[2]; A205V homozygous hybrid (Set 1), 100 μM
  AHAS activity: 36 % of untreated control
[3]; A122T homozygous (Set 2), 50 μM
  AHAS activity: 63 % relative to the untreated co
[3]; A122T homozygous (Set 2), 100 μM
  AHAS activity: 60 % relative to the untreated co
[3]; A122T homozygous hybrid (Set 1), 100 μM
  AHAS activity: 69 % of untreated control
[4]; 1-hybrid (WT × IMI restorer, A205 hetero), 50 g ai/ha + 0.25% NIS, 7 DAT
  Phytotoxicity Rating (% Crop Injury): 8.3%
[4]; 1-hybrid (WT × IMI restorer, A205 hetero), 50 g ai/ha + 0.25% NIS, 21 DAT
  Phytotoxicity Rating (% Crop Injury): 6.7%
[4]; 1-hybrid (WT × IMI restorer, A205 hetero), 100 g ai/ha + 0.25% NIS, 7 DAT
  Phytotoxicity Rating (% Crop Injury): 35.0%
[4]; 1-hybrid (WT × IMI restorer, A205 hetero), 100 g ai/ha + 0.25% NIS, 21 DAT
  Phytotoxicity Rating (% Crop Injury): 25.0%
[4]; 1-hybrid (WT × IMI restorer, A205 hetero), 200 g ai/ha + 0.25% NIS, 7 DAT
  Phytotoxicity Rating (% Crop Injury): 48.3%
[4]; 1-hybrid (WT × IMI restorer, A205 hetero), 200 g ai/ha + 0.25% NIS, 21 DAT
  Phytotoxicity Rating (% Crop Injury): 73.3%
[4]; 3-hybrid (WT × IMI restorer, A205 hetero), 50 g ai/ha + 0.25% NIS, 7 DAT
  Phytotoxicity Rating (% Crop Injury): 11.7%
[4]; 3-hybrid (WT × IMI restorer, A205 hetero), 50 g ai/ha + 0.25% NIS, 21 DAT
  Phytotoxicity Rating (% Crop Injury): 11.7%
[4]; 3-hybrid (WT × IMI restorer, A205 hetero), 100 g ai/ha + 0.25% NIS, 7 DAT
  Phytotoxicity Rating (% Crop Injury): 46.7%
[4]; 3-hybrid (WT × IMI restorer, A205 hetero), 100 g ai/ha + 0.25% NIS, 21 DAT
  Phytotoxicity Rating (% Crop Injury): 46.7%
[4]; 3-hybrid (WT × IMI restorer, A205 hetero), 200 g ai/ha + 0.25% NIS, 7 DAT
  Phytotoxicity Rating (% Crop Injury): 60.0%
[4]; 3-hybrid (WT × IMI restorer, A205 hetero), 200 g ai/ha + 0.25% NIS, 21 DAT
  Phytotoxicity Rating (% Crop Injury): 76.7%
[4]; 4-line (IMI Restorer, A205 homo), 50 g ai/ha + 0.25% NIS, 7 DAT
  Phytotoxicity Rating (% Crop Injury): 6.7%
[4]; 4-line (IMI Restorer, A205 homo), 50 g ai/ha + 0.25% NIS, 21 DAT
  Phytotoxicity Rating (% Crop Injury): 5.0%
[4]; 4-line (IMI Restorer, A205 homo), 100 g ai/ha + 0.25% NIS, 7 DAT
  Phytotoxicity Rating (% Crop Injury): 6.7%
[4]; 4-line (IMI Restorer, A205 homo), 100 g ai/ha + 0.25% NIS, 21 DAT
  Phytotoxicity Rating (% Crop Injury): 6.7%
[4]; 4-line (IMI Restorer, A205 homo), 200 g ai/ha + 0.25% NIS, 7 DAT
  Phytotoxicity Rating (% Crop Injury): 18.3%
[4]; 4-line (IMI Restorer, A205 homo), 200 g ai/ha + 0.25% NIS, 21 DAT
  Phytotoxicity Rating (% Crop Injury): 15.0%
[4]; 6-hybrid (IMI CMS × IMI restorer, A205 homo), 50 g ai/ha + 0.25% NIS, 7 DAT
  Phytotoxicity Rating (% Crop Injury): 5.0%
[4]; 6-hybrid (IMI CMS × IMI restorer, A205 homo), 50 g ai/ha + 0.25% NIS, 21 DAT
  Phytotoxicity Rating (% Crop Injury): 0.0%
[4]; 6-hybrid (IMI CMS × IMI restorer, A205 homo), 100 g ai/ha + 0.25% NIS, 7 DAT
  Phytotoxicity Rating (% Crop Injury): 8.3%
[4]; 6-hybrid (IMI CMS × IMI restorer, A205 homo), 100 g ai/ha + 0.25% NIS, 21 DAT
  Phytotoxicity Rating (% Crop Injury): 3.3%
[4]; 6-hybrid (IMI CMS × IMI restorer, A205 homo), 200 g ai/ha + 0.25% NIS, 7 DAT
  Phytotoxicity Rating (% Crop Injury): 26.7%
[4]; 6-hybrid (IMI CMS × IMI restorer, A205 homo), 200 g ai/ha + 0.25% NIS, 21 DAT
  Phytotoxicity Rating (% Crop Injury): 21.7%
[4]; 7-hybrid (WT-CMS × IMI restorer, A205 hetero), 50 g ai/ha + 0.25% NIS, 7 DAT
  Phytotoxicity Rating (% Crop Injury): 13.3%
[4]; 7-hybrid (WT-CMS × IMI restorer, A205 hetero), 50 g ai/ha + 0.25% NIS, 21 DAT
  Phytotoxicity Rating (% Crop Injury): 3.3%
[4]; 7-hybrid (WT-CMS × IMI restorer, A205 hetero), 100 g ai/ha + 0.25% NIS, 7 DAT
  Phytotoxicity Rating (% Crop Injury): 43.3%
[4]; 7-hybrid (WT-CMS × IMI restorer, A205 hetero), 100 g ai/ha + 0.25% NIS, 21 DAT
  Phytotoxicity Rating (% Crop Injury): 40.0%
[4]; 7-hybrid (WT-CMS × IMI restorer, A205 hetero), 200 g ai/ha + 0.25% NIS, 7 DAT
  Phytotoxicity Rating (% Crop Injury): 56.7%
[4]; 7-hybrid (WT-CMS × IMI restorer, A205 hetero), 200 g ai/ha + 0.25% NIS, 21 DAT
  Phytotoxicity Rating (% Crop Injury): 78.3%
[4]; 8-hybrid (WT × GM40 restorer, A122 hetero), 50 g ai/ha + 0.25% NIS, 7 DAT
  Phytotoxicity Rating (% Crop Injury): 13.3%
[4]; 8-hybrid (WT × GM40 restorer, A122 hetero), 50 g ai/ha + 0.25% NIS, 21 DAT
  Phytotoxicity Rating (% Crop Injury): 6.7%
[4]; 8-hybrid (WT × GM40 restorer, A122 hetero), 100 g ai/ha + 0.25% NIS, 7 DAT
  Phytotoxicity Rating (% Crop Injury): 13.3%
[4]; 8-hybrid (WT × GM40 restorer, A122 hetero), 100 g ai/ha + 0.25% NIS, 21 DAT
  Phytotoxicity Rating (% Crop Injury): 11.7%
[4]; 8-hybrid (WT × GM40 restorer, A122 hetero), 200 g ai/ha + 0.25% NIS, 7 DAT
  Phytotoxicity Rating (% Crop Injury): 25.0%
[4]; 8-hybrid (WT × GM40 restorer, A122 hetero), 200 g ai/ha + 0.25% NIS, 21 DAT
  Phytotoxicity Rating (% Crop Injury): 28.3%
[4]; 9-line (GM40 restorer, A122 homo), 50 g ai/ha + 0.25% NIS, 7 DAT
  Phytotoxicity Rating (% Crop Injury): 1.7%
[4]; 9-line (GM40 restorer, A122 homo), 50 g ai/ha + 0.25% NIS, 21 DAT
  Phytotoxicity Rating (% Crop Injury): 0.0%
[4]; 9-line (GM40 restorer, A122 homo), 100 g ai/ha + 0.25% NIS, 7 DAT
  Phytotoxicity Rating (% Crop Injury): 5.0%
[4]; 9-line (GM40 restorer, A122 homo), 100 g ai/ha + 0.25% NIS, 21 DAT
  Phytotoxicity Rating (% Crop Injury): 0.0%
